Like-named read-outs stand apart in the source and are kept apart here.
Tests used:
51D1 [1] = assay: WST-1 cell viability assay; assay type: cell-based, Chinese hamster; conditions: for IC50: 3 days of treatment, mean ± SEM; for EC50: Supplementary Table S1
Method: (§1) As described previously, 3000 cells per well were seeded in 96-well plates and incubated in the presence of varying concentrations of drugs for three days. Cell proliferation was measured by thymidine uptake assay, cell growth by sulforhodamine B (SRB) colorimetric assay, and cell viability by WST-1 assay, as previously described.
(§2) For viability, […] activity was measured using a water-soluble tetrazolium salt (WST-1) (purchased from Roche, Basel, Switzerland) after drug treatment for 3 days. The stable tetrazolium salt WST-1 is cleaved to a soluble formazan by a complex cellular mechanism that occurs primarily at the cell surface. This bio-reduction is largely dependent on the glycolytic production of NAD(P)H in viable cells. Therefore, the amount of formazan dye formed directly correlates with the number of metabolically active cells in the culture.

51D1.3 [2] = assay: WST-1 cell viability assay; assay type: cell-based, Chinese hamster; conditions: for IC50: 3 days of treatment, mean ± SEM; for EC50: Supplementary Table S1
Method: as §1, §2

[3] = Absorbance spectra in DMSO; assay type: physicochemical; conditions: 25 °C
Method: The absorbance and fluorescence emission spectra of up to 7 three-fold serial dilutions of MHI-148 and MHI-palbociclib in DMSO, ranging from […], were acquired at 25 °C.
• (a) Absorbance spectra of the test compound solutions (200 μL) plated in a 96-well polystyrene flat-bottom transparent microplate were acquired on a quad monochromator-equipped microplate reader Enspire 2300 (Perkin-Elmer; Singapore) from 650 nm to 900 nm in 1 nm increments. • (b) Fluorescence emission spectra of the compound solutions in a 2 mL semi-micro quartz cuvette were measured on a FP-8600 spectrofluorometer (JASCO; Japan) between 790 nm and 850 nm in 1 nm increments at the excitation wavelength of 780 nm. The fluorescence emission was measured at a high sensitivity of the instrument, with an excitation and emission bandwidth of 5 nm, a 50 ms response time, and a scan speed of 1000 nm per minute.

MDA-MB-231 [4] = assay: SRB cell growth assay; assay type: cell-based, human; conditions: for IC50: 3 days of treatment, mean ± SEM
Method: as §1
(§3) The SRB colorimetric assay, which is based on the measurement of cellular protein content, was used to measure cell density. After drug treatment for 3 days, cells were fixed with 10% (wt/vol) trichloroacetic acid and stained for 30 min, and the excess dye was removed by washing repeatedly with 1% (vol/vol) acetic acid. The protein-bound dye was dissolved in Tris base solution (10 mM) for optical density determination at 510 nm using a microplate reader. Optimal cell densities were previously determined to select initial cell densities that ensured that cells were in logarithmic phase for the experiments.

MCF-7 [5] = assay: SRB cell growth assay; assay type: cell-based, human; conditions: for IC50: 3 days of treatment, mean ± SEM
Method: as §1, §3

HEK293 [6] = assay: SRB cell growth assay; assay type: cell-based, human; conditions: 3 days of treatment, mean ± SEM
Method: as §1, §3

MDA-MB-231 [7] = assay: [3H]-thymidine incorporation cell proliferation assay; assay type: cell-based, human; conditions: for IC50: MDA-MB-231, 3 days of treatment, mean ± SEM
Method: as §1
(§4) Briefly, for the proliferation assay, [^3H]-thymidine (0.04 μCi) was added to each well and plates were incubated for 5 h, after which the cells were harvested onto glass–fiber filters using an automated TomTec harvester. Filters were incubated with Betaplate Scint and [^3H]-thymidine incorporation was measured in a Trilux/Betaplate counter. Cell proliferation was determined by the percentage incorporation of [^3H]-thymidine.

MCF-7 [8] = assay: as above; assay type: cell-based, human; conditions: 3 days of treatment, mean ± SEM
Method: as §1, §4

HEK293 [9] = assay: as above; assay type: cell-based, human; conditions: 3 days of treatment, mean ± SEM
Method: as §1, §4

51D1 [10] = assay: SRB cell growth assay; assay type: cell-based, Chinese hamster; conditions: 3 days of treatment, mean ± SEM
Method: as §1, §3

51D1.3 [11] = assay: SRB cell growth assay; assay type: cell-based, Chinese hamster; conditions: 3 days of treatment, mean ± SEM
Method: as §1, §3

51D1 [12] = assay: [3H]-thymidine incorporation cell proliferation assay; assay type: cell-based, Chinese hamster; conditions: 3 days of treatment, mean ± SEM
Method: as §1, §4

51D1.3 [13] = assay: as above; assay type: cell-based, Chinese hamster; conditions: 3 days of treatment, mean ± SEM
Method: as §1, §4

MDA-MB-231 [14] = assay: WST-1 cell viability assay; assay type: cell-based, human; conditions: for IC50: 3 days of treatment, mean ± SEM; for EC50: Supplementary Table S1
Method: as §1, §2

MCF-7 [15] = assay: WST-1 cell viability assay; assay type: cell-based, human; conditions: for IC50: 3 days of treatment, mean ± SEM; for EC50: MCF7, Supplementary Table S1
Method: as §1, §2

HEK293 [16] = assay: WST-1 cell viability assay; assay type: cell-based, human; conditions: for IC50: 3 days of treatment, mean ± SEM; for EC50: Supplementary Table S1
Method: as §1, §2

MDA-MB-231 cells [17] = assay: Flow cytometry cell cycle analysis (DNA content, PI); assay type: cell-based, human; conditions: 500 nM for 24 h, untreated cells 48%
Method: As previously described, cells (1 × 10^6 cells) were grown in six-well plates and incubated with drugs for 24 h. Cells were harvested, washed with 1% FBS/phosphate-buffered saline (PBS), resuspended in 200 μL of PBS, fixed in 2 mL of ice-cold 100% ethanol, and stored overnight at −20 °C. The cells were washed and resuspended in 1 mL of 1% FBS/PBS, containing RNase (1 μg/mL) and propidium iodide (PI) (10 μg/mL), for 30 min at room temperature. DNA content was determined using […] by PI staining based on a total of 25,000 acquired events on a BD Biosciences Accuri C6 flow cytometer, and cell cycle distribution was analysed using FlowJo version 10.7.2.

MDA-MB-231 cells [18] = assay: Propidium iodide staining of dying cells; assay type: cell-based, human; conditions: 1 µM for 24 h
Method: Cells (1 × 10^6) were incubated with drugs for 24 h. Cells were next incubated with 50 μg/mL PI in growth media for 15 min at room temperature and protected from light. Cell death was monitored by fluorescence staining of DNA by PI and analysed by fluorescent microscopy using a Floid imaging station (460× magnification).

[19] = Behaviour in aqueous environments (solubility observation); assay type: physicochemical; conditions: high concentration
MCF-7 [20] = test system: MCF-7; design: method as in earlier work; conditions: different proliferation assay, ref 21 (Finn et al.), read-out: IC50 proliferation, previously reported; cited from earlier work
MDA-MB-231 [21] = conditions: data from Finn et al.
MDA-MB-231 [22] = test system: MDA-MB-231; design: method as in earlier work; conditions: different proliferation assay, ref 21 (Finn et al.), read-out: IC50 proliferation, previously reported; cited from earlier work
MDA-MB-231 [23] = test system: MDA-MB-231; design: method as in PMID 30370249; conditions: read-out: IC50 proliferation; cited from earlier work
MCF-7 [24] = test system: MCF-7; design: method as in PMID 30370249; conditions: read-out: IC50 proliferation; cited from earlier work

Structure (SMILES): CC1(C)C(/C=C/C2=C(Cl)C(=C/C=C3/N(CCCCCC(=O)O)c4ccccc4C3(C)C)/CCC2)=[N+](CCCCCC(=O)O)c2ccccc21.[Br-] [MHI-148, 1-(5-Carboxypentyl)-2-((E)-2-((E)-3-(2-((E)-1-(5-carboxypentyl)-3,3-dimethylindolin-2-ylidene)ethylidene)-2-chlorocyclohex-1-en-1-yl)vinyl)-3,3-dimethyl-3H-indol-1-ium bromide]
- IC50 (51D1 [1]; Cricetulus griseus, 72 h): > 2500 nM
- EC50 (51D1 [1]; Cricetulus griseus): > 2500 nM
- IC50 (51D1.3 [2]; Cricetulus griseus, 72 h): > 2500 nM
- EC50 (51D1.3 [2]; Cricetulus griseus): > 2500 nM
- Absorbance λmax [3]: 797 nm
- IC50 (MDA-MB-231 [4]; Homo sapiens, 72 h): > 2500 nM
- IC50 (MCF-7 [5]; Homo sapiens, MCF7, 72 h): > 2500 nM
- IC50 (HEK293 [6]; Homo sapiens, 72 h): > 2500 nM
- IC50 (MDA-MB-231 [7]; Homo sapiens, 72 h): > 2500 nM
- IC50 (MCF-7 [8]; Homo sapiens, MCF7, 72 h): > 2500 nM
- IC50 (HEK293 [9]; Homo sapiens, 72 h): > 2500 nM
- IC50 (51D1 [10]; Cricetulus griseus, 72 h): > 2500 nM
- IC50 (51D1.3 [11]; Cricetulus griseus, 72 h): > 2500 nM
- IC50 (51D1 [12]; Cricetulus griseus, 72 h): > 2500 nM
- IC50 (51D1.3 [13]; Cricetulus griseus, 72 h): > 2500 nM
- IC50 (MDA-MB-231 [14]; Homo sapiens, 72 h): > 2500 nM
- EC50 (MDA-MB-231 [14]; Homo sapiens): > 2500 nM
- IC50 (MCF-7 [15]; Homo sapiens, MCF7, 72 h): > 2500 nM
- EC50 (MCF-7 [15]; Homo sapiens): > 2500 nM
- IC50 (HEK293 [16]; Homo sapiens, 72 h): > 2500 nM
- EC50 (HEK293 [16]; Homo sapiens): > 2500 nM

Structure (SMILES): CC(=O)c1c(C)c2cnc(Nc3ccc(N4CCN(C(=O)CCCCCN5/C(=C/C=C6\CCCC(/C=C/C7=[N+](CCCCCC(=O)N8CCN(c9ccc(Nc%10ncc%11c(C)c(C(C)=O)c(=O)n(C%12CCCC%12)c%11n%10)nc9)CC8)c8ccccc8C7(C)C)=C6Cl)C(C)(C)c6ccccc65)CC4)cn3)nc2n(C2CCCC2)c1=O.[Br-] [MHI-palbociclib]
- G1 cell cycle arrest (proportion of cells in G1) (MDA-MB-231 cells [17]): 55%
- IC50 (51D1 [1]): 197 ± 15.7 nM
- EC50 (51D1 [1]): 265 nM
- IC50 (51D1.3 [2]): 401 ± 89 nM
- EC50 (51D1.3 [2]): 471 nM
- Absorbance λmax [3]: 800 nm
- Growth inhibitory effect compared with combination of unconjugated palbociclib and MHI-148 (MDA-MB-231 [4]; 2.5 μM, 3 days, t-test p = 0.003): significantly greater
- IC50 (MDA-MB-231 [4]): 683 ± 29.6 nM
- Growth inhibitory effect compared with combination of unconjugated palbociclib and MHI-148 (MCF-7 [5]; 2.5 μM, 3 days, t-test p = 0.002): significantly greater
- IC50 (MCF-7 [5]): 506 ± 93.6 nM
- IC50 (HEK293 [6]): 171 ± 7.9 nM
- IC50 (MDA-MB-231 [7]): 170 ± 9.7 nM
- IC50 (MCF-7 [8]): 215.4 ± 0.8 nM
- IC50 (HEK293 [9]): 170 ± 4.1 nM
- PI staining of dying cells (cytotoxic effect) (MDA-MB-231 cells [18]): increased PI staining and reduced cell number
- IC50 (51D1 [10]): 187 ± 3.9 nM
- IC50 (51D1.3 [11]): 164 ± 6.8 nM
- IC50 (51D1 [12]): 205 ± 4.6 nM
- IC50 (51D1.3 [13]): 217 ± 8.7 nM
- Behaviour in aqueous environments [19]: rapidly precipitates in aqueous environments
- IC50 (MDA-MB-231 [14]): 1020 ± 150 nM
- EC50 (MDA-MB-231 [14]): 872 nM
- IC50 (MCF-7 [15]): 845 ± 34.3 nM
- IC50 (HEK293 [16]): 418 ± 68.3 nM
- EC50 (HEK293 [16]): 544 nM

Structure (SMILES): CC(=O)c1c(C)c2cnc(Nc3ccc(N4CCNCC4)cn3)nc2n(C2CCCC2)c1=O [Palbociclib]
- G1 cell cycle arrest (proportion of cells in G1) (MDA-MB-231 cells [17]): 87%
- IC50 (51D1 [1]; Cricetulus griseus, 72 h): > 2500 nM
- EC50 (51D1 [1]; Cricetulus griseus): > 2500 nM
- IC50 (51D1.3 [2]; Cricetulus griseus, 72 h): > 2500 nM
- EC50 (51D1.3 [2]; Cricetulus griseus): > 2500 nM
- IC50 (MDA-MB-231 [4]; Homo sapiens, 72 h): > 2500 nM
- IC50 (MCF-7 [5]; Homo sapiens, MCF7, 72 h): > 2500 nM
- IC50 (HEK293 [6]; Homo sapiens, 72 h): > 2500 nM
- IC50 (MCF-7 [20]): 148 ± 25.7 nM
- IC50 (MDA-MB-231 [7]; Homo sapiens, 72 h): 72.2 ± 2.8 nM
- Fold difference of the IC50 of the two cell lines (MDA-MB-231 vs MCF-7) (MDA-MB-231 [7]; thymidine incorporation, own data): 2.5 fold
- IC50 (MCF-7 [8]; Homo sapiens, MCF7, 72 h): 29.1 ± 8.6 nM
- Fold difference of the IC50 of the two cell lines (MDA-MB-231 vs MCF-7) (MDA-MB-231 [21]): 2.9 fold
- PI staining of dying cells (cytotoxic effect) (MDA-MB-231 cells [18]): minimal PI staining
- IC50 (51D1 [10]; Cricetulus griseus, 72 h): > 2500 nM
- IC50 (51D1.3 [11]; Cricetulus griseus, 72 h): > 2500 nM
- IC50 (MDA-MB-231 [22]): 432 ± 16.1 nM
- IC50 (MDA-MB-231 [14]; Homo sapiens, 72 h): > 2500 nM
- EC50 (MDA-MB-231 [14]; Homo sapiens): > 2500 nM
- IC50 (MCF-7 [15]; Homo sapiens, MCF7, 72 h): > 2500 nM
- EC50 (MCF-7 [15]; Homo sapiens): > 2500 nM
- IC50 (HEK293 [16]; Homo sapiens, 72 h): > 2500 nM
- EC50 (HEK293 [16]; Homo sapiens): > 2500 nM

Structure (SMILES): CC(=O)O[C@H]1C(=O)[C@@]2(C)[C@H]([C@H](OC(=O)c3ccccc3)[C@]3(O)C[C@H](OC(=O)[C@H](O)[C@@H](NC(=O)c4ccccc4)c4ccccc4)C(C)=C1C3(C)C)[C@]1(OC(C)=O)CO[C@@H]1C[C@@H]2O [paclitaxel]
- IC50 (MDA-MB-231 [23]): 5.8 ± 1.13 nM
- IC50 (MCF-7 [24]): 9.05 ± 0.04 nM
